Measured values reported in patent US10087242B2 (INSTITUT PASTEUR, priority 2007, dated 2018).

What was measured:
Format in all cases: binding, mouse
mIgG C7-37 = assay: inhibition ELISA: oligosaccharide inhibits fixation of mIgG C7-37 on LPS 3a; settings: concentration of oligosaccharide giving 50% inhibition of fixation of the mAb on LPS 3a (S. flexneri 3a)
Experimental: (§1) The oligosaccharide determinants recognized by the four mAbs obtained were characterized by measuring, by inhibition ELISA, the interaction of the various oligosaccharides synthesized with these mAbs.
(§2) 1) First, a standard curve OD=f(concentration of the mAb) was established for each antibody.
(§3) For this, purified LPS from S. flexneri 3a was fixed in the wells of ELISA plates (96-well plate), at a concentration of 25 μg/ml in a carbonate buffer pH 9.6, at 4° C., overnight.
(§4) After washing the wells with a solution of PBS/ Tween 20 (0.05%) 1% and a stage of saturation with PBS/BSA 1% for 30 minutes at 4° C., various concentrations of each mAb were incubated for 30 minutes at 4° C. After a washing stage, a secondary antibody coupled to alkaline phosphatase and specific to the mouse IgGs or IgMs was added at a dilution of 1/5000 (Sigma-Aldrich) for 1 h at 37° C. After washing, the enzymatic reaction was carried out with the specific substrate of alkaline phosphatase (12 mg of p-nitrophenylphosphate in 1.2 ml of Tris-HCl buffer 1M (pH 8.8) and 10.8 ml of 5M NaCl). Once the color reaction had developed, the plates were read at 405 nm (Dynatech MR 4000 plate reader). The standard curve OD =f(Ab concentration) was refined with the equation Y=aX2+bX+c, where Y corresponds to the OD and X to the antibody concentration. A correlation factor (r2) of 0.99 was generally obtained.
(§5) 2) The concentration of oligosaccharide capable of inhibiting 50% of the fixation of the mAb on LPS 3a was then determined as follows.
(§6) Each mAb was used at a given concentration, defined as the first concentration tested giving a maximum OD on the standard curve (the first point at the start of the plateau of the curve). Various concentrations of each of the oligosaccharides to be tested were then incubated separately with the mAb at constant concentration, overnight at 4° C., in 1% PBS-BSA buffer. Measurement of the free antibody concentration was carried out as stated above, after incubation of the mAb/oligosaccharide mixtures at 4° C. for 30 minutes on plates covered with LPS 3a and using the standard curve obtained in parallel on the same plate. For each mAb and each oligosaccharide, a value called IC50 was then calculated, corresponding to the concentration of oligosaccharide permitting 50% inhibition of the fixation of the mAb on LPS 3a.

mIgG G7-12 = assay: inhibition ELISA: oligosaccharide inhibits fixation of mIgG G7-12 on LPS 3a; settings: concentration of oligosaccharide giving 50% inhibition of fixation of the mAb on LPS 3a (S. flexneri 3a)
Experimental: as §1, §2, §3, §4, §5, §6

IgM (G 19-2) = assay: inhibition ELISA: oligosaccharide inhibits fixation of IgM G19-2 on LPS 3a; settings: for IC50: concentration of oligosaccharide giving 50% inhibition of fixation of the mAb on LPS 3a (S. flexneri 3a), inhibition ELISA; for recognition by the mIgM antibody (and by the mIgGs): summary in words of tables 1 and 2, interaction weaker than with the mIgGs
Experimental: Protocol 2) Ten Balb/C mice and four BP2 mice were immunized by i.p. injection with virulent live bacteria of the strain S. flexneri 3a, every three weeks, using 2×10^6 bacteria for the first 2 immunizations and 5×10^6 for the next 4. As the anti-LPS 3a antibody response was too weak for performing cellular fusion, an additional series of 4 injections was carried out. Two mAbs of type IgM, G19-2 and L18-9, were obtained.
as §1, §2, §3, §4, §5, §6

SMILES | IC50 (mIgG C7-37) [µM] | IC50 (mIgG G7-12) [µM] | IC50 (IgM (G 19-2)) [µM] | recognition by the mIgM antibody (and by the mIgGs) (IgM (G 19-2))
CCCO[C@@H]1OC(C)[C@H](O)[C@H](O[C@H]2O[C@@H](CO)[C@@H](O)C(O)C2O)C1O[C@@H]1OC(CO)[C@@H](O)C(O)[C@@H]1NC(C)=O (stereo partly drawn) | > 5000 | > 2500 | > 2500 | 
CCCO[C@@H]1O[C@@H](C)[C@H](O)[C@@H](O)[C@H]1O[C@@H]1O[C@@H](C)[C@H](O)[C@@H](O[C@H]2O[C@H](CO)[C@@H](O)[C@H](O)[C@H]2O)[C@H]1O[C@@H]1O[C@H](CO)[C@@H](O)[C@H](O)[C@H]1NC(C)=O [DEAB-OPr, Propyl 2-acetamido-2-deoxy-β-D-glucopyranosyl-(1→2)-[α-D-glucopyranosyl-(1→3)]-α-L-rhamnopyranosyl-(1→2)-α-L-rhamnopyranoside] | > 5000 | > 2500 | > 2500 | 
CCCO[C@@H]1O[C@@H](C)[C@H](O)[C@@H](O[C@@H]2O[C@@H](C)[C@H](O)[C@@H](O)[C@H]2O[C@@H]2O[C@@H](C)[C@H](O)[C@@H](O[C@H]3O[C@H](CO)[C@@H](O)[C@H](O)[C@H]3O)[C@H]2O[C@@H]2O[C@H](CO)[C@@H](O)[C@H](O)[C@H]2NC(C)=O)[C@H]1O [DEABC)-OPr, Propyl (2-acetamido-2-deoxy-β-D-glucopyranosyl)-(1→2)-[α-D-glucopyranosyl-(1→3)]-α-L-rhamnopyranosyl-(1→2)-α-L-rhamnopyranosyl-(1→3)-α-L-rhamnopyranoside] | > 5000 | > 2500 | > 2500 | 
CCCO[C@@H]1OC(CO)[C@@H](O)C(O[C@@H]2OC(C)[C@H](O)C(O[C@@H]3OC(C)[C@H](O)C(O)C3O[C@@H]3OC(C)[C@H](O)C(O[C@H]4OC(CO)[C@@H](O)C(O)C4O)C3O)C2OC(C)=O)C1NC(C)=O (stereo partly drawn) [EABC(2-OAc)D-OPr, Propyl α-D-glucopyranosyl-(1→3)-α-L-rhamnopyranosyl-(1→2)-α-L-rhamnopyranosyl-(1→3)-(2-O-acetyl-α-L-rhamnopyranosyl)-(1→3)-2-acetamido-2-deoxy-β-D-glucopyranoside] | 280 | 315 | 1280 | recognized
CCCO[C@@H]1OC(C)[C@H](O)C(O[C@H]2OC(CO)[C@@H](O)C(O)C2O)C1O[C@@H]1OC(CO)[C@@H](O)C(O[C@@H]2OC(C)[C@H](O)C(O[C@@H]3OC(C)[C@H](O)C(O)C3O)C2O)C1NC(C)=O (stereo partly drawn) [BCDEA-Opr, Propyl α-L-rhamnopyranosyl-(1→3)-α-L-rhamnopyranosyl-(1→3)-(2-acetamido-2-deoxy-β-D-glucopyranosyl)-(1→2)-[α-D-glucopyranosyl-(1→3)]-α-L-rhamnopyranoside] | > 1000 | > 2500 | > 2500 | 
CCCO[C@@H]1O[C@@H](C)[C@H](O)[C@@H](O)[C@H]1O[C@@H]1O[C@@H](C)[C@H](O)[C@@H](O[C@H]2O[C@H](CO)[C@@H](O)[C@H](O)[C@H]2O)[C@H]1O [EAB-OPr, Propyl α-D-glucopyranosyl-(1→3)-α-L-rhamnopyranosyl-(1→2)-α-L-rhamnopyranoside] | > 5000 | > 2500 | > 2500 | 
CCCO[C@@H]1OC(C)[C@H](O)C(O)C1O[C@@H]1OC(C)[C@H](O)C(O[C@H]2OC(CO)[C@@H](O)C(O)C2O)C1O[C@@H]1OC(CO)[C@@H](O)C(O[C@@H]2OC(C)[C@H](O)C(O[C@@H]3OC(C)[C@H](O)C(O)C3O)C2OC(C)=O)C1NC(C)=O (stereo partly drawn) [BC(2-OAc)D(E)AB-OPr, Propyl α-L-rhamnopyranosyl-(1→3)-(2-O-acetyl-α-L-rhamnopyranosyl)-(1→3)-(2-acetamido-2-deoxy-β-D-glucopyranosyl)-(1→2)-[α-D-glucopyranosyl-(1→3)]-α-L-rhamnopyranosyl-(1→2)-α-L-rhamnopyranoside] | 230 | 205 | 2200 | recognized
CCCO[C@@H]1OC(C)[C@H](O)C(O[C@H]2OC(CO)[C@@H](O)C(O)C2O)C1O[C@@H]1OC(CO)[C@@H](O)C(O[C@@H]2OC(C)[C@H](O)C(O[C@@H]3OC(C)[C@H](O)C(O)C3O)C2OC(C)=O)C1NC(C)=O (stereo partly drawn) [BCDEA-Opr-Oac, Propyl α-L-rhamnopyranosyl-(1→3)-(2-O-acetyl-α-L-rhamnopyranosyl)-(1→3)-(2-acetamido-2-deoxy-β-D-glucopyranosyl)-(1→2)-[α-D-glucopyranosyl-(1→3)]-α-L-rhamnopyranoside] | 195 | 175 | 1980 | recognized
CCCO[C@@H]1OC(C)[C@H](O)C(O)C1O[C@@H]1OC(C)[C@H](O)C(O[C@H]2OC(CO)[C@@H](O)C(O)C2O)C1O[C@@H]1OC(CO)[C@@H](O)C(O[C@@H]2OC(C)[C@H](O)C(O)C2OC(C)=O)C1NC(C)=O (stereo partly drawn) [C(2,3-OAc)D(E)AB-OPr, Propyl (2-O-acetyl-α-L-rhamnopyranosyl)-(1→3)-(2-acetamido-2-deoxy-β-D-glucopyranosyl)-(1→2)-[α-D-glucopyranosyl-(1→3)]-α-L-rhamnopyranosyl-(1→2)-α-L-rhamnoyranoside] | > 5000 | > 2500 | > 2500 | 
CCCO[C@@H]1OC(C)[C@H](O)C(O)C1O[C@@H]1OC(C)[C@H](O)C(O[C@H]2OC(CO)[C@@H](O)C(O)C2O)C1O[C@@H]1OC(CO)[C@@H](O)C(O[C@@H]2OC(C)[C@H](O)C(O[C@@H]3OC(C)[C@H](O)C(O)C3O)C2O)C1NC(C)=O (stereo partly drawn) [BCDEAB-Opr] | > 5000 | > 2500 | > 2500 | 
CCCO[C@@H]1O[C@@H](C)[C@H](O)[C@@H](O[C@@H]2O[C@@H](C)[C@H](O)[C@@H](O)[C@H]2O[C@@H]2O[C@@H](C)[C@H](O)[C@@H](O[C@H]3O[C@H](CO)[C@@H](O)[C@H](O)[C@H]3O)[C@H]2O)[C@H]1OC(C)=O [EABC(2-OAc)-OPr, Propyl α-D-glucopyranosyl-(1→3)-α-L-rhamnopyranosyl-(1→2)-α-L-rhamnopyranosyl-(1→3)-2-O-acetyl-α-L-rhamnopyranoside] | 410 | 450 | 1430 | recognized
CCCO[C@@H]1O[C@H](CO)[C@@H](O)[C@H](O[C@@H]2O[C@@H](C)[C@H](O)[C@@H](O[C@@H]3O[C@@H](C)[C@H](O)[C@@H](O)[C@H]3O[C@@H]3O[C@@H](C)[C@H](O)[C@@H](O[C@H]4O[C@H](CO)[C@@H](O)[C@H](O)[C@H]4O)[C@H]3O)[C@H]2O)[C@H]1NC(C)=O [EABCD-OPr, Propyl α-D-glucopyranosyl-(1→3)-α-L-rhamnopyranosyl-(1→2)-α-L-rhamnopyranosyl-(1→3)-α-L-rhamnopyranosyl-(1→3)-2-acetamido-2-deoxy-β-D-glucopyranoside] | > 1000 | > 2500 | > 2500 | 
CCCO[C@@H]1O[C@@H](C)[C@H](O)[C@@H](O[C@@H]2O[C@@H](C)[C@H](O)[C@@H](O)[C@H]2O[C@@H]2O[C@@H](C)[C@H](O)[C@@H](O[C@H]3O[C@H](CO)[C@@H](O)[C@H](O)[C@H]3O)[C@H]2O)[C@H]1O [EABC-Opr, Propyl α-D-glucopyranosyl-(1→3)-α-L-rhamnopyranosyl-(1→2)-α-L-rhamnopyranosyl-(1→3)-α-L-rhamnopyranoside] | > 5000 | > 2500 | > 2500 | 
CCCO[C@@H]1O[C@@H](C)[C@H](O)[C@@H](O[C@@H]2O[C@@H](C)[C@H](O)[C@@H](O)[C@H]2O[C@@H]2O[C@@H](C)[C@H](O)[C@@H](O[C@H]3O[C@H](CO)[C@@H](O)[C@H](O)[C@H]3O)[C@H]2O[C@@H]2O[C@H](CO)[C@@H](O)[C@H](O)[C@H]2NC(C)=O)[C@H]1OC(C)=O [DEABC(2-OAc)-OPr, Propyl (2-acetamido-2-deoxy-β-D-glucopyranosyl)-(1→2)-[α-D-glucopyranosyl-(1→3)]-α-L-rhamnopyranosyl-(1→2)-α-L-rhamnopyranosyl-(1→3)-2-O-acetyl-α-rhamnopyranoside] |  | > 2500 | > 2500 | 
CCCO[C@@H]1O[C@@H](C)[C@H](O)[C@@H](O[C@H]2O[C@H](CO)[C@@H](O)[C@H](O)[C@H]2O)[C@H]1O [EA-OPr, Propyl α-D-glucopyranosyl- (1→3)-α-L-rhamnopyranoside] | > 5000 | > 2500 | > 2500 | 
